Values after ≈ are worked out from the molar mass of the structure shown.
Assays:
Assay type in all cases: cell-based
Conditions in all cases: banded into grades
[1] = test system: Aspergillus terreus AT49; test: Measurement of Minimum Inhibitory Concentrations (MICs), A. terreus 49
Method: (§1) Between 1 and 5 mgs of compound were accurately weighed out into a sterile Eppendorf tube. The compound was dissolved in DMSO to give a solution containing 5 mg/mL. Tubes were stored at −20° C. until required. On the day of testing thawed solutions were vortex mixed to ensure homogeneity. 30 μL of solution was removed and added to 570 μL of sterile water in a separate sterile Eppendorf. The thoroughly mixed solution was used to prepare a series of doubling dilutions in water, in a deep well plate. […] replicate plates were prepared using a Minitrak by aspirating […] from each well into eleven clear polystyrene 96 well plates. Spores of Aspergillus spp. (Aspergillus fumigatus [two strains], Aspergillus terreus [two strains], Aspergillus niger and Aspergillus flavus) were harvested from cultures grown on Sabarauds agar for 5 days, and resuspended in PBS/Tween 80 to approx 1×10^7 cfu/mL. Each organism suspension was diluted in YAG medium (1% glucose, 1% ammonium chloride and 0.5% yeast extract) to 0.5-2×10^4 cfu/mL. 80 μL of an organism suspension was added to each well of the plate containing drug dilutions. This produced MIC plates with a drug range 50-0.05 mg/L and organism inocula of 1−2×10^4 cfu/mL for Aspergillus spp. All plates were incubated for 24 hrs at 35° C. Growth was assessed by monitoring the optical density at 485 nm for each well. The MIC of a compound is the lowest drug concentration that inhibits growth of an organism by >70% compared with a drug free control. MICs are recorded as mg/L. In cases where the MIC of an organism is >=0.05 mg/L the MIC is repeated using a concentration range of 0.5-0.0005 mg/L. Other growth media can be used for susceptibility testing, and the activity of the described compounds was also assessed in RPMI medium containing 2% glucose, and 0.135M MOPS buffer. MIC tests in YAG medium have more clear-cut endpoints and have slightly lower MICs than those performed in RPMI medium. The following organisms were tested: Aspergillus flavus, Aspergillus fumigatus AF293 and AF210, Aspergillus niger and Aspergillus terreus AT4 and AT49.

[2] = test system: Aspergillus flavus; test: Measurement of Minimum Inhibitory Concentrations (MICs), A. flavus
Method: as §1

[3] = test system: Aspergillus fumigatus AF293; test: Measurement of Minimum Inhibitory Concentrations (MICs), A. fumigatus
Method: as §1

[4] = test system: Aspergillus terreus AT4; test: Measurement of Minimum Inhibitory Concentrations (MICs), A. terreus
Method: as §1

[5] = test system: Aspergillus fumigatus AF210; test: Measurement of Minimum Inhibitory Concentrations (MICs), A. fumigatus 210
Method: as §1

[6] = test system: Aspergillus niger; test: Measurement of Minimum Inhibitory Concentrations (MICs), A. niger
Method: as §1

[7] = RPMI medium containing 2% glucose, 0.135M MOPS buffer
[8] = YAG medium, 24 hrs at 35° C., >70% growth inhibition

| Structure (SMILES) | MIC [1, 7] [µg/mL] | MIC [1, 8] [µg/mL] | MIC [2, 7] [µg/mL] | MIC [2, 8] [µg/mL] | MIC [3, 7] [µg/mL] | MIC [3, 8] [µg/mL] | MIC [4, 7] [µg/mL] | MIC [4, 8] [µg/mL] | MIC [5, 7] [µg/mL] | MIC [5, 8] [µg/mL] | MIC [6, 7] [µg/mL] | MIC [6, 8] [µg/mL] |
| --- | --- | --- | --- | --- | --- | --- | --- | --- | --- | --- | --- | --- |
| COc1cc(C)nc(N2CCN(c3ccc(NC(=O)C(=O)c4c(-c5ccccc5)cc5n4CCCC5)cc3)CC2)c1 [Example 8, N-{4-[4-(4-Methoxy-6-methyl-pyridin-2-yl)-piperazin-1-yl]-phenyl}-2-oxo-2-(2-phenyl-5,6,7,8-tetrahydro-indolizin-3-yl)-acetamide] | < 1 | < 1 | 1 to 10 (≈ 1.82 to 18.2 µM) | < 1 | < 1 | < 1 | < 1 | < 1 | 1 to 10 (≈ 1.82 to 18.2 µM) | < 1 | 1 to 10 (≈ 1.82 to 18.2 µM) | 1 to 10 (≈ 1.82 to 18.2 µM) |
| Cc1cc(C)nc(OCCOc2ccc(NC(=O)C(=O)c3c(-c4ccccc4)cc4n3CCCC4)cc2)c1 [Example 9, N-{4-[2-(4,6-Dimethyl-pyridin-2-yloxy)-ethoxy]-phenyl}-2-oxo-2-(2-phenyl-5,6,7,8-tetrahydro-indolizin-3-yl)-acetamide] | < 1 | < 1 | < 1 | < 1 | < 1 | < 1 | < 1 | < 1 | < 1 | < 1 | < 1 | < 1 |
| Cc1cc(C)nc(N2CCN(c3ccc(NC(=O)C(=O)c4c(C5CCOCC5)cc5n4CCCC5)cc3)CC2)c1 [Example 10, N-{4-[4-(4,6-Dimethyl-pyridin-2-yl)-piperazin-1-yl]-phenyl}-2-oxo-2-[2-(tetrahydro-pyran-4-yl)-5,6,7,8-tetrahydro-indolizin-3-yl]-acetamide] | < 1 | < 1 | < 1 | < 1 | < 1 | < 1 | < 1 | < 1 | < 1 | < 1 | < 1 | < 1 |
| Cc1cc(C)nc(N2CCN(c3ccc(NC(=O)C(=O)c4c(C5CCN(C)CC5)cc5n4CCCC5)cc3)CC2)c1 [Example 11, N-{4-[4-(4,6-Dimethyl-pyridin-2-yl)-piperazin-1-yl]-phenyl}-2-[2-(1-methyl-piperidin-4-yl)-5,6,7,8-tetrahydro-indolizin-3-yl]-2-oxo-acetamide] | > 10 | > 10 | > 10 | > 10 | > 10 | > 10 | > 10 | > 10 | > 10 | > 10 | > 10 | > 10 |
| O=C(NC1CCN(c2ccccc2)CC1)C(=O)c1c(-c2ccccc2)cc2n1CCCC2 [Example 12, 2-Oxo-N-(1-phenyl-piperidin-4-yl)-2-(2-phenyl-5,6,7,8-tetrahydro-indolizin-3-yl)-acetamide] | 1 to 10 (≈ 2.34 to 23.4 µM) | < 1 | > 10 | > 10 | 1 to 10 (≈ 2.34 to 23.4 µM) | < 1 | 1 to 10 (≈ 2.34 to 23.4 µM) | < 1 | 1 to 10 (≈ 2.34 to 23.4 µM) | < 1 | 1 to 10 (≈ 2.34 to 23.4 µM) | < 1 |
| COc1cc(C)cc(N2CCN(c3ccc(NC(=O)C(=O)c4c(-c5ccccc5)cc5n4CCCC5)cc3)CC2)n1 [Example 13, N-{4-[4-(6-Methoxy-4-methyl-pyridin-2-yl)-piperazin-1-yl]-phenyl}-2-oxo-2-(2-phenyl-5,6,7,8-tetrahydro-indolizin-3-yl)-acetamide] | < 1 | < 1 | < 1 | < 1 | < 1 | < 1 | < 1 | < 1 | < 1 | < 1 | < 1 | < 1 |
| Cc1cc(OCCOc2ccc(NC(=O)C(=O)c3c(-c4ccccc4)cc4n3CCCC4)cc2)cc(C)n1 [Example 14, N-{4-[2-(2,6-Dimethyl-pyridin-4-yloxy)-ethoxy]-phenyl}-2-oxo-2-(2-phenyl-5,6,7,8-tetrahydro-indolizin-3-yl)-acetamide] | < 1 | < 1 | > 10 | 1 to 10 (≈ 1.96 to 19.6 µM) | 1 to 10 (≈ 1.96 to 19.6 µM) | 1 to 10 (≈ 1.96 to 19.6 µM) | < 1 | 1 to 10 (≈ 1.96 to 19.6 µM) | 1 to 10 (≈ 1.96 to 19.6 µM) | 1 to 10 (≈ 1.96 to 19.6 µM) | 1 to 10 (≈ 1.96 to 19.6 µM) | 1 to 10 (≈ 1.96 to 19.6 µM) |
